# Patent publication US20140005255A1, “Agonists Of Toll Like Receptor For Treating Cardiovasuclar Disease And Obesity” (priority 2010, published 2014)
# Experiments:
# [1] = test system: human atheroma-derived smooth muscle cells (AthSMC); assay: Cytokine production (ELISA) by SMC stimulated with TLR agonists for 24 hours, AthSMC compared to AoSMC; type: cell-based; conditions: 24 hours stimulation
# Protocol: AthSMC were isolated from the mixed atheroma cells via magnetic cell sorting (Miltenyi, MACS), utilizing anti-CD45 (pan-leukocyte marker) and anti-CD31 (endothelial cells) antibodies coupled to microbeads. SMC expressing SMC-alpha actin composed >90% of the cells. Control AoSMC were purchased from Promocell (Germany). Both SMC types were grown in SMC medium (Promocell, Germany) and used at passage 3 consistently in all experiments. The protocols of stimulation with TLR ligands are described below.
# SMC were cultured in 50 cm^2 tissue culture dishes and grown until near confluence. AthSMC and AoSMC were serum starved for 24 hours and then cultured in DMEM either alone or in the presence of 10 ng/ml IL1a, 100 ng/ml Pam3Cys, 100 ng/ml FSL-1 (Pam2CGDPKHPKSF), 25 μg/ml Poly(I:C), 100 ng/ml Lipopolysaccharide (LPS), 1 μg/ml R837 (Imiquimod) and 1 μg/ml PolyU (all purchased from Invivogen). Cells were serum starved for 24 h prior to stimulation with the indicated agonists. Supernatants were collected 24 hours after stimulation and frozen at −80° C. for batch analysis via ELISA. In the experiments performed on the mixed human atheroma cell culture, cells were cultured immediately after isolation at 10^6 cells per milliliter in RPMI containing 5% fetal bovine serum (Biosera, UK) in the presence or absence of 25 μg/ml Poly(I:C), 1 μM CpG ODN2006 and 1 μM CpG ODN2006 control (Invivogen) for 24 and 48 hours. The concentrations used were selected on the basis of dose-response experiments as the dose with maximal effect in absence of cell death monitored via MTT.
# (§1) Cytokine production in supernatants of AthSMC and AoSMC were measured by ELISA using IL-6, IL-8 and CCL2/MCP-1 (Pharmingen, UK). IFNα was detected via a high sensitivity ELISA kit from R&D Systems. Each condition was tested in triplicate and each triplicate was analyzed separately. Concomitantly, viability was monitored with the use of 3-(4,5-dimethyl[…])-2,5-diphenyltetrazolium (MTT) (Sigma, UK).
# AthSMC and AoSMC [2] = assay: Atherosclerosis RT2 Profiler PCR Array gene expression in SMC stimulated with Poly(I:C) for 5 hours; type: cell-based, human; conditions: 25 μg/ml
# Protocol: SMCs were plated in 9.6 cm^2 dishes and grown until near confluence. SMCs were serum starved for 24 h prior to stimulation with 25 μg/ml Poly(I:C) for 5 hours. Total cellular RNA was extracted from SMC using RNeasy® Mini Kit (Qiagen) according to the manufacturer's instructions. To remove any residual genomic DNA, RNA samples were treated with DNase (TurboDNase, Ambion) according to manufacturer's instructions. RNA was reverse transcribed to cDNA using M-MLV Reverse Transcriptase (Promega, UK). Quantitative PCR (QPCR) analysis of 84 atherosclerosis related genes was performed using Atherosclerosis RT2 Profiler PCR Arrays (SA Bioscience Corporation, USA) as per the manufacturer's protocol. The complete list of the genes analyzed is available online at http://www.sabiosciences.com/rt_per_product/HTML/PAHS-038A.html. RT2 Profiler PCR arrays were run on an ABI 7900HT machine (Applied Biosystems). Duplicate arrays were run per condition for unstimulated and Poly (I:C)-stimulated AoSMC and AthSMC. Data analysis was performed using the manufacturer's integrated web-based software package for the PCR Array System using Ct based fold-change calculations.
# AthSMC and AoSMC [3] = assay: TLR3 gene expression by Q-PCR in stimulated SMC; type: cell-based, human; conditions: 5 hours
# Protocol: Alternatively, AoSMc and AthSMC were stimulated with 25 μg/ml Poly(I:C) or interferon α (IFN α) at 10 ng/mL or IFNy at 10 ng/mL. Total RNA was extracted as before and TLR3 gene expression was quantified via Q-PCR with TaqMan® Gene Expression Assays (Hs01551078_m1*; Applied Biosystems Inc.).
# [4] = test system: C57BL/6, ApoE−/− and TLR3−/− mice; assay: Vascular gene expression (quantitative RT-PCR) 24 hours after a single i.p. dose of Poly(I:C); type: in vivo
# Protocol: FIG. 2 Aortic gene expression of both pro- and anti-inflammatory factors is induced by Poly(I:C) stimulation. 10- and 30-week old C57BL/6, ApoE−/− and TLR3−/− mice were stimulated with PBS or 250 μg Poly(I:C) in PBS. 24 hours post-stimulation, mice were sacrificed, aortas harvested and RNA extracted. Gene expression of CCL5 (A), IL-10 (B), VCAM-1 (C) and IFNβ (D) was examined by quantitative RT-PCR. Bars show overall mean±SEM (n=3-5 mice per group; *p<0.05, **p<0.01, ***p<0.001 PBS v. Poly(I:C); unpaired student's t-test).
# (§2) Total RNA was isolated from murine tissues using the Qiagen RNeasy kit (Qiagen, Crawley, UK) according to the manufacturer's instructions. Total RNA was treated with DNase I and reverse-transcribed to cDNA using M-MLV Reverse Transcriptase RNase H-, Point Mutant (Promega, UK) and oligo(dT) primer. RT-PCR was performed using TaqMan Gene Expression Assays (CCL5 (Mm01302427_m1), VCAM1 (Mm01320970_m1), CCL2 (Mm00441242_m1), TLR3 (Mm01207403_m1), IL-10 (Mm01288386_m1), PD-L1 (Mm00452054_m1*), PD-L2 (Mm00451734_m1*) IFNβ (Mm00439552_s1*), (Applied Biosystems) and TaqMan universal PCR Master Mix (Applied Biosystems) on a 7900HT Fast Real-Time PCR System (Applied BioSystems). PCR amplification was carried out for 40 cycles. Samples were normalized to β-actin. The 2-ΔΔCt method was used to analyze the relative changes in gene expression.
# C57BL/6 mice = assay: Gene expression in aortas and lymphoid tissues after chronic Poly(I:C) stimulation for 3 weeks; type: in vivo; conditions: chronic stimulation 3 weeks
# Excerpt: FIG. 10 Gene expression of anti-inflammatory factors is increased in aortas and lymphoid tissues in C57BL/6 mice treated with Poly(I:C) Aortas, spleens and para-aortic lymph nodes (PALN) of C57BL/6 mice that underwent carotid artery injury and PBS or Poly(I:C) treatment were collected at sacrifice. RNA was extracted and gene expression of CCL5, IFNβ, PD-L1, PD-L2, and IL-10 in the aorta (A), spleen (B) and PALN(C) was examined by RT-PCR. Bars show overall mean±SEM (n=4 mice per group, *p<0.05, **p<0.01 PBS v. Poly(I:C); unpaired student's t-test). Abbreviations: IFNβ: Interferon beta, IL-10: Interleukin-10, PD-L1: programmed death-ligand 1, PD-L2: programmed death-ligand 2.
# (§3) At 22 weeks of age, male C57BL/6 and TLR3^−/− mice were anesthetized with isofluorane by inhalation, the left carotid artery dissected and a non-occlusive tygon collar (length 2.5 mm; internal bore diameter, 510 μm, Cole-Parmer, London, UK) placed around the carotid artery. Mice received 250 μg Poly(I:C) (Sigma, Dorset, UK) or PBS intraperitoneally on alternate days for a total of 8 doses starting 4 days after surgery. Twenty-one days following collar placement, mice were euthanized, and neointima development and the presence of elastic lamina breaks were assessed as described below.
# as §2
# C57BL/6 and TLR3−/− mice = assay: Perivascular collar injury: neointima formation (intima/media ratio); type: in vivo
# Protocol: as §3
# […] following collar placement, mice were euthanized, terminal blood collected via cardiac puncture and the vasculature perfused with 0.9% saline. Injured carotids were dissected out and frozen at −80° C. in Optimal cutting temperature (OCT) compound (ThermoScientific, Runcorn, UK). Sham-operated contralateral arteries were used as controls. Mice were fed regular chow throughout the duration of the experiment.
# For the injured carotid artery, serial 5 μm cryosections were taken of the carotid tissue distal to the collar. Five sections were collected on each slide and 15 to 25 slides were collected per arterial segment. The first five alternate slides were stained with Accustain elastic stain kit (Sigma) according to manufacturer's instructions. Measurement of lesion and vessel areas was performed on one section per stained slide using ProgRes CapturePro image analysis software (version 2.5.2.0, Jenoptik, Germany). The area between the internal and external elastic […] was taken as the medial area and the intimal area was calculated by subtracting the lumen area from the internal elastic lamina area. The intimal medial ratio (IMR) was then calculated by dividing the intimal area by the medial area. The IMR measurements were then averaged for each mouse.
# TLR3−/− mice = assay: Perivascular collar injury: elastic lamina breaks; type: in vivo; conditions: systemic administration 250 μg i.p.
# Protocol: as §3
# Elastin-stained slides were also used to assess the integrity of the elastic laminae. The portion of the carotid artery distal to the collar (the same as used for neointima assessment) was divided into 5 segments and representative sections from each segment were evaluated for the presence of interruptions in the elastic lamina. The width of any observed break was measured by drawing a line between the start and end of a break in the external elastic lamina using ProgRes CapturePro image analysis software (version 2.5.2.0, Jenoptik). The width of any elastic lamina break was calculated as the mean width of break across all sections examined for each mouse. […]
# TLR8 = conditions: cited from earlier work
# [5] = test system: mixed human atheroma cell culture; assay: IFNα production (ELISA) in mixed cell type atheroma cell culture; type: cell-based; conditions: 1 μM, 24 hours
# Protocol: Carotid endarterectomies from patients undergoing surgery for carotid disease were obtained at Charing Cross Hospital, London. The protocol was approved by the Research Ethics Committee RREC2989. All patients gave written informed consent, according to the Human Tissue Act 2004 (UK). Single cell suspensions of mixed cell types were obtained via enzymatic digestion and cultured for 24 hours as previously described (18).
# SMC were cultured in 50 cm^2 tissue culture dishes and grown until near confluence. AthSMC and AoSMC were serum starved for 24 hours and then cultured in DMEM either alone or in the presence of 10 ng/ml IL1a, 100 ng/ml Pam3Cys, 100 ng/ml FSL-1 (Pam2CGDPKHPKSF), 25 μg/ml Poly(I:C), 100 ng/ml Lipopolysaccharide (LPS), 1 μg/ml R837 (Imiquimod) and 1 μg/ml PolyU (all purchased from Invivogen). […] The concentrations used were selected on the basis of dose-response experiments as the dose with maximal effect in absence of cell death monitored via MTT.
# as §1
# [6] = Poly(I:C) 25 μg/ml, FSL-1 100 ng/ml
# [7] = single dose 250 μg i.p., 24 hours
compound,measurement,setting,value
FSL-1,"IL-6 expression, AthSMC compared to AoSMC",[1]; [6],enhanced response
same,"IL-8 expression, AthSMC compared to AoSMC",[1]; [6],enhanced response
Polyriboinosinic-polycytidylic acid [Poly(I:C)],"TLR3 dependent response in AthSMC compared to AoSMC (fold change in IL-6 production, FIG. 1B)",[1]; 25 μg/ml,over 40 fold
same,"CCL2/MCP-1 expression, AthSMC compared to AoSMC",[1]; [6],enhanced expression
same,"IL-6 expression, AthSMC compared to AoSMC",[1]; [6],enhanced expression
same,"IL-8 expression, AthSMC compared to AoSMC",[1]; [6],enhanced expression
same,"Expression of selected genes of inflammatory cell recruitment (e.g. VCAM1, CCL5) and regulation of inflammation (e.g. A20, BIRC3/cIAP)",AthSMC and AoSMC [2],significantly increased the expression
same,TLR3 gene expression,"AthSMC and AoSMC [3]; AoSMC, 25 μg/ml",not in AoSMC
same,TLR3 gene expression,"AthSMC and AoSMC [3]; AthSMC, 25 μg/ml",able to upregulate the expression of TLR3
same,Gene induction in aorta of ApoE−/− mice with advanced disease compared to young ApoE−/−,[4]; 30-week vs 10-week old ApoE−/− mice,more pronounced
same,Gene induction in carotid artery tissue compared to aorta,"[4]; CCL5, CCL2, VCAM1, single dose 250 μg",even more marked
same,Expression of the induced genes in TLR3−/− mice,"[4]; TLR3−/− mice, single dose 250 μg",almost abrogated
same,A20 induction,"[4]; mice, single dose 250 μg i.p.",A20 induction was not observed
same,Aortic expression of CCL2/MCP-1,[4]; [7],induced the aortic expression
same,Aortic expression of CCL5/RANTES,[4]; [7],induced the aortic expression
same,Aortic expression of IFNβ,[4]; [7],induced the aortic expression
same,Aortic expression of IL-10,[4]; [7],induced the aortic expression
same,Aortic expression of PD-L2,[4]; [7],induced the aortic expression
same,Aortic expression of VCAM-1,[4]; [7],induced the aortic expression
same,"TLR3 gene expression in vascular tissues (aorta, carotid arteries)","[4]; single dose 250 μg, 24 hours",up-regulated TLR3 gene expression
same,Expression of CCL5 in the aorta,C57BL/6 mice,significantly increased
same,Expression of IFNβ in the aorta,C57BL/6 mice,significantly increased
same,Expression of IFNβ mRNA in the spleen,C57BL/6 mice,induced
same,Expression of IL10 in the aorta,C57BL/6 mice,significantly increased
same,Gene expression of PD-L1 in the para-aortic lymph nodes,C57BL/6 mice,induced
same,Gene expression of PD-L2 in the para-aortic lymph nodes,C57BL/6 mice,induced
same,"Neointima formation, intima/media ratio, compared to vehicle","C57BL/6 and TLR3−/− mice; C57BL/6 mice, 250 μg i.p., 21 days after injury, p<0.001",significantly reduced
same,Protection against neointima formation,"C57BL/6 and TLR3−/− mice; TLR3−/− mice, 250 μg i.p., p>0.05",ablated
same,End-weight of mice,"C57BL/6 and TLR3−/− mice; all groups, Poly(I:C) or vehicle",No difference
same,"Elastic lamina breaks (frequency, depth and width)",TLR3−/− mice,"reduced the frequency, depth and width of the elastic lamina breaks"
CCCc1nc2c(N)nc3ccccc3c2s1 [CL075],Agonist strength for TLR8 relative to TLR7,TLR8,~10 ×
IFNα,TLR3 gene expression,"AthSMC and AoSMC [3]; AoSMC and AthSMC, IFN 10 ng/mL",able to increase the expression of TLR3
CCCCNc1nc(N)c2[nH]c(=O)n(Cc3ccc(C(=O)NCC(=O)O)cc3)c2n1 [CL264],TLR8 activation / stimulation,TLR8; CL264: even at high concentrations (>10 mg/ml),does not stimulate TLR8
CpG ODN2006,IFNα production,[5],Type I interferons are produced in the mixed cell culture population in response to TLR9 stimulation
